The source of these data is patent publication US6884882B1, “2′-deoxyuridine derivatives and hydrogels formed therewith” (Postech Foundation, priority 2004, dated 2005).

What all share (assay type): physicochemical
Data set [1] can be described thus: Gelation test (stable-to-inversion-of-the-container method) in water. The following applies: for State: 2 wt % in water, dissolved by sonication and heating, cooled at room temperature for 20 minutes, vessel inverted; for Minimum gel concentration: minimum concentration at which a gel was formed in water; for gelation ability: in water, judged from Table 1. The method, then: In order to determine the extent of gelation of the 2′-deoxyuridine derivative of the present invention, the “stable-to-inversion-of-the-container” method was performed (see F. M. Menger and K. L Caran., J. Am. Chem. Soc., 122, 11679, 2000).
Each of 2′-deoxyuridine derivatives prepared in Example 1 was mixed with water in an amount corresponding to a concentration of 2 wt %, completely dissolved by sonication and heating, and then cooled at room temperature for 20 minutes to induce the formation of a gel. Then, the vessel containing the gel was inverted to see whether or not the content poured out.
Further, the minimum concentration at which a gel was formed (hereinafter, minimum gel concentration) was measured for each of the 2′-deoxyuridine derivatives.

Data set [2] is described as follows: Observation of inner structures of gels by Scanning Electron Microscopy (SEM). Particulars: for gel structure in SEM image: gel prepared by the method of Example 2, lyophilized, platinum coated. The method, then: The aggregation mode of the gel formed with the 2′-deoxyurindine derivative was observed by Scanning Electron Microscopy (SEM). Gels were prepared using the 2′-deoxyuridine derivatives prepared in 1-4), 1-7), 1-9) and 1-10) by the method of Example 2. Each of the gels was heated to obtain a sol, and a small amount of the sol was converted to a gel cake, which was lyophilized under a vacuum at the liquid nitrogen temperature to remove the solvent, coated with platinum, and examined by SEM.

Data set [3] is described as follows: Analysis of thermal stability of hydrogel by differential scanning calorimetry. The following applies: DSC, 30 to 220° C., FIG. 3. The method, then:
In order to examine the thermal stability of the 2′-deoxyuridine derivative of the present invention, 1 to 4 mg of the derivative prepared in 1-9) was shaped in the form of a pellet, and differential scanning calorimetry was performed therewith at a temperature ranging from 30 to 220° C.

The structures appear in SMILES notation. Entries after “also recorded” stand apart in the source; their conditions may differ.

Turning to `O=c1[nH]c(=O)n([C@H]2C[C@H](O)[C@@H](CO)O2)cc1-c1cn(Cc2ccccc2)nn1` [1-4), 2′-deoxy-5-[1-(phenylmethyl)-1H-1,2,3-triazol-4-yl]-uridine], in data set [1], the State entry is “White opaque gel” and the Minimum gel concentration is recorded as 0.3 wt %. In addition, in data set [2], the “gel structure in SEM image” value is “lamellar structure”.
As for `Cc1ccccc1Cn1cc(-c2cn([C@H]3C[C@H](O)[C@@H](CO)O3)c(=O)[nH]c2=O)nn1` [1-5), 2′-deoxy-5-[1-((o-methylphenyl)methyl)-1H-1,2,3-triazol-4-yl]-uridine], in data set [1], the State entry is reported as “Unstable white opaque gel” and the Minimum gel concentration stood at 3 wt %.
Regarding `Cc1cccc(Cn2cc(-c3cn([C@H]4C[C@H](O)[C@@H](CO)O4)c(=O)[nH]c3=O)nn2)c1` [1-6), 2′-deoxy-5-[1-((m-methylphenyl)methyl)-1H-1,2,3-triazol-4-yl]-uridine], in data set [1], the State entry is listed as “Unstable white opaque gel” and the Minimum gel concentration stood at 1 wt %.
As to `Cc1ccc(Cn2cc(-c3cn([C@H]4C[C@H](O)[C@@H](CO)O4)c(=O)[nH]c3=O)nn2)cc1` [1-7), 2′-deoxy-5-[1-((p-methylphenyl)methyl)-1H-1,2,3-triazol-4-yl]-uridine], in data set [1], the State entry is recorded as “White opaque gel”, the gelation ability result is “good gelation ability” and the Minimum gel concentration came to 0.6 wt %. Moreover, the “gel structure in SEM image” value in data set [2] is “lamellar structure”.
With `CCc1ccccc1Cn1cc(-c2cn([C@H]3C[C@H](O)[C@@H](CO)O3)c(=O)[nH]c2=O)nn1` [1-8), 2′-deoxy-5-[1-((o-ethylphenyl)methyl)-1H-1,2,3-triazol-4-yl]-uridine], in data set [1], the State result was “Unstable white opaque gel” and the Minimum gel concentration stood at 2 wt %.
`CCc1ccc(Cn2cc(-c3cn([C@H]4C[C@H](O)[C@@H](CO)O4)c(=O)[nH]c3=O)nn2)cc1` [1-9), 2′-deoxy-5-[1-((p-ethylphenyl)methyl)-1H-1,2,3-triazol-4-yl]-uridine]: in data set [1], the State result is on record as “White opaque gel”, the gelation ability entry is listed as “good gelation ability; also recorded: best gelation ability” and the Minimum gel concentration is 0.2 wt %. For the same molecule, the “gel structure in SEM image on lowering the concentration” value in data set [2] (concentration lowered from 2 to 0.25 wt %, FIG. 2) was “looser fiber structure having a larger void volume”. The “gel structure in SEM image” value in data set [2] is given as “fiber structure”. For the same molecule, in data set [3], the “melting point peak of the gel phase” value turned out to be 201 °C and the “melting point peak of the solid phase” value worked out at 200 °C.
Take `CCCCc1ccc(Cn2cc(-c3cn([C@H]4C[C@H](O)[C@@H](CO)O4)c(=O)[nH]c3=O)nn2)cc1` [1-10), 2′-deoxy-5-[1-((p-butylphenyl)methyl)-1H-1,2,3-triazol-4-yl]-uridine]: in data set [1], the State entry is “White opaque gel”, the gelation ability entry was “good gelation ability” and the Minimum gel concentration amounted to 0.8 wt %. In addition, the “gel structure in SEM image” value in data set [2] is on record as “lamellar structure”.
